Assay results: article PMC3840065, “Structural Insights into the Mechanism for Recognizing Substrate of the Cytochrome P450 Enzyme TxtE” (PLoS ONE, 2013)

Key:
Assay in all cases: UV-vis difference titration (type I shift, […] nm)
Type in all cases: binding
[1] = biological target: T1, TxtE (Streptomyces scabiei, UniProt C9ZDC6, N293L)
T1 construct: full length, 406 residues, pET-28a, N-terminal His-tag with thrombin site (tag kept), E. coli Rosetta(DE3) pLysS, monomer in solution

[2] = biological target: T2, TxtE (Streptomyces scabiei, UniProt C9ZDC6)
T2 construct: full length, 406 residues, pET-28a, N-terminal His-tag with thrombin site (tag kept), E. coli Rosetta(DE3) pLysS, monomer in solution
T2 sequence (C9ZDC6 entry or part of it): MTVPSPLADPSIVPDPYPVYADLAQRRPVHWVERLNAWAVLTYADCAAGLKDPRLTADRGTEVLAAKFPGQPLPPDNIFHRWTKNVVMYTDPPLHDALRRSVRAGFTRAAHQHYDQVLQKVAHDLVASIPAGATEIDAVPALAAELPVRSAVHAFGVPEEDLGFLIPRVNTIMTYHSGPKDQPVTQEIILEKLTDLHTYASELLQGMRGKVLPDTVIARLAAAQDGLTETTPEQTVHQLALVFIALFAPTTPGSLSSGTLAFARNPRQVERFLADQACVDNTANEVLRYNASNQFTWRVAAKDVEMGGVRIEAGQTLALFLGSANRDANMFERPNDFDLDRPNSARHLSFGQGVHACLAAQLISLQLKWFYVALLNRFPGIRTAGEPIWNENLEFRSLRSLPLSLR

[3] = biological target: T3, TxtE (Streptomyces scabiei, UniProt C9ZDC6, Y89F)
T3 construct: full length, 406 residues, pET-28a, N-terminal His-tag with thrombin site (tag kept), E. coli Rosetta(DE3) pLysS, monomer in solution
T3 sequence (C9ZDC6 whole entry Y89F): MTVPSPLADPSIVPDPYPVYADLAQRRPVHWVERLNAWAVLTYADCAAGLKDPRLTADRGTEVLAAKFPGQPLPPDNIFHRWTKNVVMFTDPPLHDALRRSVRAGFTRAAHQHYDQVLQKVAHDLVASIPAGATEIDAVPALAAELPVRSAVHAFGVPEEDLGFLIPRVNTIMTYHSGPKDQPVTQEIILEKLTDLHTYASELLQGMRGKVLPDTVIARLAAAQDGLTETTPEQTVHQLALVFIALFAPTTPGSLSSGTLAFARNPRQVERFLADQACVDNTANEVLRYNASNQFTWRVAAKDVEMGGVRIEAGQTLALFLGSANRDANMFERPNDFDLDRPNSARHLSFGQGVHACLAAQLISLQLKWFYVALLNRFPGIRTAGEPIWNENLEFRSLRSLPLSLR

T1 sequence (C9ZDC6 whole entry N293L): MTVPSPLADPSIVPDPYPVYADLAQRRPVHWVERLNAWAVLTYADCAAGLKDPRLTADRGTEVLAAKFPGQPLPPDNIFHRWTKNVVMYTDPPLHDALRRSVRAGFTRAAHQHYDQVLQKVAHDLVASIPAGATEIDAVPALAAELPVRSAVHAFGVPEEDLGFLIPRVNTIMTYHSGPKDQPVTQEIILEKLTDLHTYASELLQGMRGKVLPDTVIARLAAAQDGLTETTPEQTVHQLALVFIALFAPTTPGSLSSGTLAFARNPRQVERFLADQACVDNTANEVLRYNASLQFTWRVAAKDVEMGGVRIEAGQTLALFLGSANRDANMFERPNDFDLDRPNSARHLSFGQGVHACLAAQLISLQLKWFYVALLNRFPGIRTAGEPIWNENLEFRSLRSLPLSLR

Structure (SMILES): N[C@@H](Cc1c[nH]c2ccccc12)C(=O)O [L-tryptophan]
- Kd [1]: 1700 ± 280 µM
- Kd [2]: 43.6 ± 2.26 µM
- Kd [3]: 121 ± 4.3 µM
